# Results published in patent US11203591B2, “Substituted 6-azabenzimidazole compounds” (Gilead Sciences, Inc., priority 2018, dated 2021).
# Target: human HPK1 (MAP4K1) (Homo sapiens (Human), UniProt Q92918)
# Experiment: HPK1 IC50 Assay (TR-FRET peptide phosphorylation)
# Format: biochemical
# Method in brief: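 Readout: TR-FRET (665 nm/620 nm) after EDTA stop, detecting STK S1 peptide (1 μM) phosphorylation by 0.15 nM HPK1 kinase domain, ATP-pre-activated, at 10 μM ATP over 3 h, 25° C, pH 7.0. IC50s from four-parameter variable-slope fits, normalized to staurosporine and DMSO, averaged geometrically.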
# [1] = recombinant HPK1 kinase domain 0.15 nM, 10 μM ATP, 1 μM STK S1 peptide, geometric mean of multiple experiments
# human HPK1 (MAP4K1), sequence (Q92918 17-274): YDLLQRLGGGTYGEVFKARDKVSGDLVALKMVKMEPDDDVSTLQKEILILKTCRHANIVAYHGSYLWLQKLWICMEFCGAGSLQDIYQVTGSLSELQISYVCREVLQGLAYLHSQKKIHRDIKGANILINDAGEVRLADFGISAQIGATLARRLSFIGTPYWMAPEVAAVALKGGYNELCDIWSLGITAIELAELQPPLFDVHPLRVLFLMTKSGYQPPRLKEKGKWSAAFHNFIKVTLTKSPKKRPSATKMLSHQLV
IC50 [1],SMILES,"IC50 (0.15 nM HPK1, 10 μM ATP, 1 μM STK S1 peptide substrate, geometric mean)"
0.2 nM,Cc1ccc(Nc2nc(-c3ccc4c(c3)N([C@H]3C[C@@H](N5CCCCC5)C3)C(=O)C43CCOCC3)cc3ncn(C(C)C)c23)cc1C(=O)NC1CCC1 [Example 23],
0.07 nM,"Cc1c(C(=O)NC2(CF)CC2)cc(Nc2nc(-c3cnc4c(c3)N([C@H]3C[C@@](C)(N5CCCCC5)C3)C(=O)C4(C)C)cc3ncn(C(C)C)c23)c(F)c1F [Example 186, 5-((6-(3,3-Dimethyl-1-((1s,3s)-3-methyl-3-(piperidin-1-yl)cyclobutyl)-2-oxo-2,3-dihydro-1H-pyrrolo[3,2-b]pyridin-6-yl)-3-isopropyl-3H-imidazo[4,5-c]pyridin-4-yl)amino)-3,4-difluoro-N-(1-(fluoromethyl)cyclopropyl)-2-methylbenzamide]",
,"CCNC(=O)c1cc(Nc2nc(-c3cnc4c(c3)N([C@H]3C[C@@](C)(N5CCCCC5)C3)C(=O)C4(C)C)cc3ncn(C(C)C)c23)c(F)c(F)c1F [Example 278, 5-((6-(3,3-dimethyl-1-((1s,3s)-3-methyl-3-(piperidin-1-yl)cyclobutyl)-2-oxo-2,3-dihydro-1H-pyrrolo[3,2-b]pyridin-6-yl)-3-isopropyl-3H-imidazo[4,5-c]pyridin-4-yl)amino)-N-ethyl-2,3,4-trifluorobenzamide]",0.2 nM
0.4 nM,CNC(=O)c1cc(Nc2nc(-c3ccc4c(c3)N([C@H]3C[C@@H](N5CC6C(C5)C6(F)F)C3)C(=O)C4(C)C)cc3ncn(C(C)C)c23)ccc1C (stereo partly shown) [Example 7],
